From the NIST ThermoML archive (doi:10.1021/je700202h)
± gives the expanded uncertainty stated by the source.

Conditions: 101.33 kPa, Liquid

| SMILES | mass density (293.15 K) | viscosity (293.15 K) | mass density (298.15 K) | viscosity (298.15 K) | mass density (303.15 K) | viscosity (303.15 K) | mass density (308.15 K) | viscosity (308.15 K) | mass density (313.15 K) | viscosity (313.15 K) |
| --- | --- | --- | --- | --- | --- | --- | --- | --- | --- | --- |
| CCCCCCCCC [nonane] | 717.9 ± 0.9 kg/m3 | 0.7091 ± 0.012 mPa·s | 714 ± 0.9 kg/m3 | 0.664 ± 0.012 mPa·s | 710.8 ± 1 kg/m3 | 0.6217 ± 0.011 mPa·s | 706.7 ± 1 kg/m3 | 0.5849 ± 0.011 mPa·s | 702.8 ± 1.1 kg/m3 | 0.55 ± 0.01 mPa·s |
| CCCCCCC [heptane] | 682.8 ± 0.7 kg/m3 | 0.4142 ± 0.0078 mPa·s | 678.6 ± 0.8 kg/m3 | 0.3928 ± 0.0075 mPa·s | 674.7 ± 0.8 kg/m3 | 0.3728 ± 0.0072 mPa·s | 670.7 ± 0.9 kg/m3 | 0.3541 ± 0.007 mPa·s | 665.6 ± 0.9 kg/m3 | 0.3374 ± 0.0067 mPa·s |
